Experiment [1] relates to double mutant EGF receptors. The following applies: cell lines expressing double mutant EGF receptors; cited from earlier work.
Experiment [2] has as its system cell lines expressing double mutant EGF receptors. The settings on record: cited from earlier work.
Experiment [3] has as its system SKOV-3 cells. The experiment can be described thus: anchorage independent SKOV-3 cell assay (soft agar). Format: cell-based, human. Here is the method: SKOV-3 cells are grown on a soft agar layer in the presence of 2 nM BIBW2992BS or three concentrations of 5FU (200 nM, 400 nM, 800 nM) or in combination of both.

For the molecule `CC#CC(=O)Nc1ccc2ncnc(Nc3cccc(Br)c3)c2c1` [CL 387,785], in experiment [1], the “inhibition of EGF-induced EGFR phosphorylation” value is given as “able to inhibit”. Besides, the inhibition of proliferation entry in experiment [2] is on record as “able to inhibit”.
Take `O=c1[nH]cc(F)c(=O)[nH]1` [5FU, 5-fluorouracile]: the “inhibition of cell growth” value in experiment [3] (200 nM) and in experiment [3] (400 nM) was “No inhibition” each time. For the same molecule, the inhibition at 0.8 µM in experiment [3] (Homo sapiens, SK-OV-3, 800 nM, read-out: inhibition of cell growth) turned out to be 13%.
With `CN(C)C/C=C/C(=O)Nc1cc2c(Nc3ccc(F)c(Cl)c3)ncnc2cc1O[C@H]1CCOC1` [BIBW2992, 4-[(3-chloro-4-fluorophenyl)amino]-6-{[4-(N,N-dimethylamino)-1-oxo-2-buten-1-yl]amino}-7-((S)-tetrahydrofuran-3-yloxy)-quinazoline], in experiment [3] (Homo sapiens, SK-OV-3, 2 nM, read-out: inhibition of cell growth), the inhibition at 0.002 µM turned out to be 20%.

One may read the inhibition as the drop in the measured response relative to a control, in per cent.

These data come from US20180086744A1, “COMBINATION TREATMENT OF CANCER COMPRISING EGFR/HER2 INHIBITORS” (Boehringer Ingelheim International GmbH, priority 2005, published 2018).
